Assays:
Type in all cases: cell-free
[1] = molecular target: T1, Interleukin-1 receptor-associated kinase 4 (Homo sapiens) (UniProt Q9NWZ3); test: Inhibition of human IRAK4 in HL-60 cells lysate assessed as reduction of labeling of acyl-phosphate ATP probe at 100 nM
T1 sequence (whole entry): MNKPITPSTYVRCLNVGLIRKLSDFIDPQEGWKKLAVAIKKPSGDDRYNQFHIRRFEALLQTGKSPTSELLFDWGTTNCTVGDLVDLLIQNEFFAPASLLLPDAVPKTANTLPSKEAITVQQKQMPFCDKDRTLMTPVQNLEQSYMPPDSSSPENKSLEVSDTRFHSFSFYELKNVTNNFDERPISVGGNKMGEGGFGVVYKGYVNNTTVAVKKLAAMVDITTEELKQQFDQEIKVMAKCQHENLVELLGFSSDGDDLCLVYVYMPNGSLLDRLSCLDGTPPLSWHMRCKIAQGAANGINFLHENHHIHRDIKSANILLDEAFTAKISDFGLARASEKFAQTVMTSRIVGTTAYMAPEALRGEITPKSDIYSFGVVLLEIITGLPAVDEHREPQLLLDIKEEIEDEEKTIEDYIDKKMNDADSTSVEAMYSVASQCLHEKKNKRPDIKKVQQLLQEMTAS

[2] = molecular target: Serine/threonine-protein kinase PLK1 (Homo sapiens) (UniProt P53350); test: Inhibition of human PLK1 in HL-60 cells lysate assessed as reduction of labeling of acyl-phosphate ATP probe at 100 nM
[3] = molecular target: T2, Phosphatidylinositol 4,5-bisphosphate 3-kinase catalytic subunit delta isoform (Homo sapiens) (UniProt O00329); test: Inhibition of human PIK3CD in HL-60 cells lysate assessed as reduction of labeling of acyl-phosphate ATP probe at 100 nM
T2 sequence (whole entry): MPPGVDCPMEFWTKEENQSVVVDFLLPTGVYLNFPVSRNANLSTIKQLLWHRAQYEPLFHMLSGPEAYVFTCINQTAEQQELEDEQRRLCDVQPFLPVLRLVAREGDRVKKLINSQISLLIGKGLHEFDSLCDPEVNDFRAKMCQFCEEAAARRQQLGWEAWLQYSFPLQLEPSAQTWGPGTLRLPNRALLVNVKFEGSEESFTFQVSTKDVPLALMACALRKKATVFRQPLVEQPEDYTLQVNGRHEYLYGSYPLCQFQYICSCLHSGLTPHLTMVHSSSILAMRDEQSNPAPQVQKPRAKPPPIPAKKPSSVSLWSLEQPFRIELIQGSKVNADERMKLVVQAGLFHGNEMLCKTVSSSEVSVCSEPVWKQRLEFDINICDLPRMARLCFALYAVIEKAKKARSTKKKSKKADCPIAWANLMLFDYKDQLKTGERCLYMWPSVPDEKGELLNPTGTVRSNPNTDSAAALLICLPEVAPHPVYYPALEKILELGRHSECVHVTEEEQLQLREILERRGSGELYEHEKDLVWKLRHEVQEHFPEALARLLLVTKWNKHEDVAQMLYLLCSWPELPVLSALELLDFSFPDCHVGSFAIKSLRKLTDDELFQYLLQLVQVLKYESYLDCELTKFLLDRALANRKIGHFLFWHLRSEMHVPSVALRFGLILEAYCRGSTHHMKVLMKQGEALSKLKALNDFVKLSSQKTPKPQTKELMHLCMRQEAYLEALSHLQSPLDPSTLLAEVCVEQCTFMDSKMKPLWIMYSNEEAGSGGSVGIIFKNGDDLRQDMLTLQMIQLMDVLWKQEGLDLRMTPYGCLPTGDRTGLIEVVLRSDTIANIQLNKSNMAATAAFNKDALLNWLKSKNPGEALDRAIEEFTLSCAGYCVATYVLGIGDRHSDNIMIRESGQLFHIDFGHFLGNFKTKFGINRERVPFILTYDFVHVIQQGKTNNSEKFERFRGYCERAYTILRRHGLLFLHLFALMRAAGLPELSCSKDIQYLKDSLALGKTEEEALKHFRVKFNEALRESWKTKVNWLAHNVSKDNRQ

[4] = molecular target: T3, Phosphatidylinositol 5-phosphate 4-kinase type-2 alpha (Homo sapiens) (UniProt P48426); test: Inhibition of human PIP4K2A in HL-60 cells lysate assessed as reduction of labeling of acyl-phosphate ATP probe at 100 nM
T3 sequence (whole entry): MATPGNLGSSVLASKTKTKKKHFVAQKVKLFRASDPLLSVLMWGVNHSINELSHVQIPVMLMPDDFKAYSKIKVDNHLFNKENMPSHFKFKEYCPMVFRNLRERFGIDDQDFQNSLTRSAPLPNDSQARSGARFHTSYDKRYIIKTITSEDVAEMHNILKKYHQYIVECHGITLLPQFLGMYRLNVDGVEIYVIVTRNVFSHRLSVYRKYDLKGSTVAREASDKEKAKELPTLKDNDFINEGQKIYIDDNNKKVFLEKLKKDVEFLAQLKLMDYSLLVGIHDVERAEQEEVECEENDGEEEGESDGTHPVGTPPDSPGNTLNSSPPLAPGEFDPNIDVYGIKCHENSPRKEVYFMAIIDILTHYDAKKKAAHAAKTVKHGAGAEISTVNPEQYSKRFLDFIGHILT

[5] = molecular target: T4, Receptor-interacting serine/threonine-protein kinase 1 (Homo sapiens) (UniProt Q13546); test: Inhibition of human RIPK1 in HL-60 cells lysate assessed as reduction of labeling of acyl-phosphate ATP probe at 100 nM
T4 sequence (whole entry): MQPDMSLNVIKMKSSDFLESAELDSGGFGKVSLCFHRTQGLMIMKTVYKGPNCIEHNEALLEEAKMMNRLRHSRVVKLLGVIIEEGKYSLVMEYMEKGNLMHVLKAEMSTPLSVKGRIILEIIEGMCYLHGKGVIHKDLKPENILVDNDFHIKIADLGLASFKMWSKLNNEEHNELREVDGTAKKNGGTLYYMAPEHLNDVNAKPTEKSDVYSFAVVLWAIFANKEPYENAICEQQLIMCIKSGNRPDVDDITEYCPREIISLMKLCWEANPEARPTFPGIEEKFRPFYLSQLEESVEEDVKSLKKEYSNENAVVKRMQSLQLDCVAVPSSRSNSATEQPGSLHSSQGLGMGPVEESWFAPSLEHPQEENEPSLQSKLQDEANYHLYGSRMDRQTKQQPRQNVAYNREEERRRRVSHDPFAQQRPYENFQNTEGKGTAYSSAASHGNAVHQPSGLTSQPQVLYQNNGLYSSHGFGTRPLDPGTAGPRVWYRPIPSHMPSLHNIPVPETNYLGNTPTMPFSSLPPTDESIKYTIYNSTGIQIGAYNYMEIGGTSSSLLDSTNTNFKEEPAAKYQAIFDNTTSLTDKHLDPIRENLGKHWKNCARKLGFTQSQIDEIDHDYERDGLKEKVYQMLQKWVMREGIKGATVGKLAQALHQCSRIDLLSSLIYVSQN

[6] = molecular target: Tyrosine-protein kinase JAK1 (Homo sapiens) (UniProt P23458); test: Inhibition of human JAK1 domain2 in HL-60 cells lysate assessed as reduction of labeling of acyl-phosphate ATP probe at 100 nM
[7] = molecular target: Tyrosine-protein kinase Fes/Fps (Homo sapiens) (UniProt P07332); test: Inhibition of human FES in HL-60 cells lysate assessed as reduction of labeling of acyl-phosphate ATP probe at 100 nM
Chain of Tyrosine-protein kinase Fes/Fps (Homo sapiens) (P07332 whole entry): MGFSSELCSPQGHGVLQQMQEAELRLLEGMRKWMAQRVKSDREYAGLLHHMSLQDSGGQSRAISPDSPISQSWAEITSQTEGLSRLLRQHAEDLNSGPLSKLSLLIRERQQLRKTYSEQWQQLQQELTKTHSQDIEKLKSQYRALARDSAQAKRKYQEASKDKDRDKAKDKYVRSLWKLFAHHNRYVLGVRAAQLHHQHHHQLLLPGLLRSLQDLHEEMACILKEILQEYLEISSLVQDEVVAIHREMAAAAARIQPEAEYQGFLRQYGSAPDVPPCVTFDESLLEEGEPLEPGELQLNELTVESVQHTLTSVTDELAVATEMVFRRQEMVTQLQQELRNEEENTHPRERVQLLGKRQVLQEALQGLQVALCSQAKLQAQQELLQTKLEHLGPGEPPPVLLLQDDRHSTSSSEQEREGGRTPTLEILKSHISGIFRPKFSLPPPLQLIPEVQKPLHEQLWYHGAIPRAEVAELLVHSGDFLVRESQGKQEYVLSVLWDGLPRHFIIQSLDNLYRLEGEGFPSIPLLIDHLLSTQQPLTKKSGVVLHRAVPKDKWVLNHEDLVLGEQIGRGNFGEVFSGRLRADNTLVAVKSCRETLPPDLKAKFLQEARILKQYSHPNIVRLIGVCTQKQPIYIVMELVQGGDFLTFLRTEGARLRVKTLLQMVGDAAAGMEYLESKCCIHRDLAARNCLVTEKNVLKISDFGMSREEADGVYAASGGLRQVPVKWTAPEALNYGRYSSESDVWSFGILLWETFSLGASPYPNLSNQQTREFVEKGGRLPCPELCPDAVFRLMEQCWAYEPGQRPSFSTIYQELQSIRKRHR

Chain of Tyrosine-protein kinase JAK1 (Homo sapiens) (P23458 whole entry, the tested form may be a part): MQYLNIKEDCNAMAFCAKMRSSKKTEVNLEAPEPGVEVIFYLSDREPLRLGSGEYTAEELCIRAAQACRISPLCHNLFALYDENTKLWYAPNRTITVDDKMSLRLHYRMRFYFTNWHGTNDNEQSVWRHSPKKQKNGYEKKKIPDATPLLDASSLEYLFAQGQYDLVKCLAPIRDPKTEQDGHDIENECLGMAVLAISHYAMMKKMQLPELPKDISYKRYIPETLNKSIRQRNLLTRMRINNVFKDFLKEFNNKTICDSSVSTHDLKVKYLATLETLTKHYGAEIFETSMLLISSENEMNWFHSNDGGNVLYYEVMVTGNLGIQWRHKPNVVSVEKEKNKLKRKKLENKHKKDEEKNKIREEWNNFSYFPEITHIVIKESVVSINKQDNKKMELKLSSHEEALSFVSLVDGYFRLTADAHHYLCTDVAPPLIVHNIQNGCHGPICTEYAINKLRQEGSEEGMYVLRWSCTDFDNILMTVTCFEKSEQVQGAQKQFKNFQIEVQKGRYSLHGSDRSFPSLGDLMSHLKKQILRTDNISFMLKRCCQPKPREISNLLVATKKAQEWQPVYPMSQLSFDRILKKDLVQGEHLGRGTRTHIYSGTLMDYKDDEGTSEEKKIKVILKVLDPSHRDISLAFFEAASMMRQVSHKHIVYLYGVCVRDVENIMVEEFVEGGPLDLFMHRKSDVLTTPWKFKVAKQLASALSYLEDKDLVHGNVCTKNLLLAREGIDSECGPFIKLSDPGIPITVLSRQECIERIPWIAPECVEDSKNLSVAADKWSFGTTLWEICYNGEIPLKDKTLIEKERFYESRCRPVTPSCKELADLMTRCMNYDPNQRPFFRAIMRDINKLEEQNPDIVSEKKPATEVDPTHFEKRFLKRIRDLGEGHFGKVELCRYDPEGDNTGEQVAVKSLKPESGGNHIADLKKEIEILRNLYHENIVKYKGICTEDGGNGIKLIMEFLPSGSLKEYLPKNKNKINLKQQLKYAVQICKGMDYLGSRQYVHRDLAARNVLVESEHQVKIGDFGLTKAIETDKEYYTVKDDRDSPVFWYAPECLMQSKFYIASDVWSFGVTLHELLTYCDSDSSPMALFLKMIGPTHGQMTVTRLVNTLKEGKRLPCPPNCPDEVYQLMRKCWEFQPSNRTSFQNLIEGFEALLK
Chain of Serine/threonine-protein kinase PLK1 (Homo sapiens) (P53350 whole entry, canonical isoform): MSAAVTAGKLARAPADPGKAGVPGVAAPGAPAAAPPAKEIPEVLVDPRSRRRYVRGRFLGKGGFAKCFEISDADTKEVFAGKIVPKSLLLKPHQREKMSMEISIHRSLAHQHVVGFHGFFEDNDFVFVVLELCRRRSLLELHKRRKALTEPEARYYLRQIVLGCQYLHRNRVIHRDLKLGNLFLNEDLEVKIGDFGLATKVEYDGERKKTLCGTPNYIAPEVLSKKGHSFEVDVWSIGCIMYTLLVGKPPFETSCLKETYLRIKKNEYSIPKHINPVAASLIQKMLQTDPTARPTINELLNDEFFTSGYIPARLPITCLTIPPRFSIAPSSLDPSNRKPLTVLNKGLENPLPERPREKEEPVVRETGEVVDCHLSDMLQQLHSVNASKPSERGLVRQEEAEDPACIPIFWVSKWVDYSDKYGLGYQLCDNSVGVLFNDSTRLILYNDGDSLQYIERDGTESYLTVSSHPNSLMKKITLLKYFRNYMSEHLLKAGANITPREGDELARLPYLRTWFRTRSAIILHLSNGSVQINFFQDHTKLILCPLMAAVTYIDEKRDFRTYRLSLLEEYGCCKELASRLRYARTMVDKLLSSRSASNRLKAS

| inhibition [1] [%] | inhibition [2] [%] | inhibition [3] [%] | inhibition [4] [%] | inhibition [5] [%] | inhibition [6] [%] | inhibition [7] [%] | Compound |
| --- | --- | --- | --- | --- | --- | --- | --- |
| < 35 | < 35 | < 35 | < 35 | < 35 | < 35 | < 35 | C[C@H]1COc2c(NCCCc3ccccn3)c(F)c(N)c3c(=O)c(C#N)cn1c23 |
| < 35 | < 35 | < 35 | < 35 | < 35 | < 35 | < 35 | C[C@H]1COc2c(NCCCn3cccn3)c(F)c(N)c3c(=O)c(C(=O)O)cn1c23 |
| < 35 | < 35 | < 35 | < 35 | < 35 | < 35 | < 35 | C[C@H]1COc2c(NCCCn3cccn3)c(F)c(N)c3c(=O)c(C#N)cn1c23 |
| < 35 | < 35 | < 35 | < 35 | < 35 | < 35 | < 35 | C[C@H]1COc2c(NCCCc3ccccn3)c(F)c(N)c3c(=O)c(C(=O)O)cn1c23 |

Reference: ChEMBL document CHEMBL1938230, “6-Position optimization of tricyclic 4-quinolone-based inhibitors of glycogen synthase kinase-3β: discovery of nitrile derivatives with picomolar potency” (Bioorg Med Chem Lett, 2012)
